One may read the IC50 as the point on the concentration scale where inhibition reaches its midpoint.

Bounds are passed on as bounds.

Assay [1] is described as follows: ONOOH scavenging (protection against ONOOH induced DHR-123 oxidation). Type of assay: biochemical. Particulars: 50% inhibition of oxidation of DHR-123; 5 μM DHR-123, 0.7 μM ONOOH, pH 7.4, 37° C., n = 3; read-out: ONOO− scavenging activity, IC50 ± SEM. As for the experimental part: The protection against ONOOH induced DHR-123 oxidation of the compounds was measured as described by Kooy et al (Peroxynitrite-mediated oxidation of dihydrorhodamine 123. Free Radic Biol Med, 16; 149-56). In short, 5 μM DHR-123 and various concentrations of a scavenger were incubated in 100 mM sodium phosphate buffer (pH 7.4) at 37° C. Subsequently, ONOOH was added by pipetting a 10 μl aliquot into the tube while rapid vortexing, reaching a final concentration of 0.7 μM. Fluorescence measurements were performed with excitation and emission wavelengths of respectively 500 and 536 nm. The effects are expressed as the concentration of the scavenger giving 50% inhibition of the oxidation of DHR-123 (IC50).

Assay [2] in a line: O2•- scavenging (xanthine/xanthine oxidase, NBT reduction). The note with it: 50% decrease in the reduction of NBT; xanthine 150 μM, XO 5.5 mU/ml, pH 7.8, 37° C., n = 3; read-out: O2•− scavenging activity, IC50 ± SEM. The format is biochemical. As for the experimental part: O2•- were generated by the reaction of xanthine (150 μM) and xanthine oxidase (XO) (5.5 mU/ml) in 50 mM potassium phosphate buffer (pH 7.8). O2•-radicals were detected by nitroblue tetrazolium (NBT, 50 μM). NBT undergoes reduction by O2•- to its formazan. The rate of this reduction was monitored spectrophotometrically at 560 nm during 2 minutes. Various concentrations of a scavenger were added and incubated at 37° C. The reaction was started by the addition of XO. The O2•-scavenging potential is expressed as the concentration of the scavenger giving a 50% decrease in the reduction of NBT (IC50).
To adjust for a possible inhibitory effect of the scavenger on the activity of XO, the highest concentration of the scavenger was incubated at 37° C. and subsequently the rate of the urate formation was measured at 293 nm during 2 minutes.

In assay [3] the test system is diaphragm muscle strips. The experiment in a line: Organ bath experiments: force of diaphragm strips after H2O2 incubation. On the set-up: species or system Male Lewis rats. Particulars: all applied stimulation frequencies, compared with control; FIG. 1. The text has this:
Male Lewis rats (age between 12 and 14 weeks old) were used. After decapitation, the diaphragm was rapidly excised, and small strips (around 2 mm width and 1 cm long) were cut and subsequently mounted in thermostated organ baths, containing Krebs buffer gassed with a mixture of 95% O2 and 5% CO2, pH 7.4. Each diaphragm strip was connected vertically to an isometric transducer. The composition of the Krebs buffer was (mM): NaCl (117.5), KCl (5.6), MgSO4 (1.18), CaCl2 (2.5), NaHPO4 (1.28), NaHCO3 (25) and glucose (5.5). During the experiment, the buffer was changed every 15 minutes. Field stimulation was created along the entire length of each muscle strip with platinum electrodes. At the beginning of the experiment, the strips were washed during 45 minutes at room temperature to minimize temperature dependent deterioration. Thereafter, the water bath was turned on at 37° C. (15 minutes before the start of the experiments). […] First the Pt (twitch tension at a stimulation of 1 Hz) and Po (maximal specific tension at a stimulation of 100 Hz, 250 ms duration) were determined. Thereafter, the response of the diaphragm muscle strips to increasing stimulus frequencies was assessed at Lo by the application of 10, 20, 33, 50 and 100 Hz-pulses applied in 250 ms trains. […] After that were again determined: Pt, Po, force-frequency and fatigue.

Consider `O=C(O)CCCC[C@@H]1CCSS1` (racemic) [Lipoic acid, reference compound], for which the IC50 in assay [1] was more than 200 µM; in assay [2] it was more than 100 µM. `OO` [H2O2, hydrogen peroxide]: the “effect on muscle force” value in assay [3] is “dose-dependently reduces the force”. As to `COc1cc(CCO)ccc1O` [Homovanillic alcohol], the results for the IC50 in assay [1] and in assay [2] were 6.6 ± 0.2 µM and more than 200 µM, respectively.

For `OCCc1ccc(O)cc1` [Tyrosol], the 50% inhibitory concentration (IC50) was 99 ± 16 µM in assay [1] and more than 200 µM in assay [2].

The values above are taken from US20110172301A1, “Use of anti-oxidant compounds for muscle recovery” (DSM IP ASSETS B.V., priority 2004, published 2011).
